Each compound was assayed on MCH receptors (assay: MCH receptor activity class (method not given)). Conditions: MCH receptor activity class 1-3 (percent of control at 10^-7 M or IC50).

Structure (SMILES) | class
CN(C)c1nc(N[C@H]2CC[C@@H](CNC(=O)NC(c3ccccc3)c3ccccc3)CC2)nc2c1CCCC2 [compound 2481] | 3 (Class 3 The value of percent of control at 10^−7 M was more than 60% or the value of IC50 was more than 200 nM.)
Cc1cc(C)c(NC(=O)NC[C@H]2CC[C@@H](Nc3cc(N(C)C)c4ccccc4n3)CC2)c(C)c1 [compound 2367, N-[(cis-4-{[4-(dimethylamino)quinolin-2-yl]amino}cyclohexyl)methyl]-N′-mesitylurea] | 2 (Class 2: The value of percent of control at 10^−7 M was from 40% to 60% or the value of IC′50 was from 50 nM to 200 nM.)
Cc1ccc(NC(=S)N[C@H]2CC[C@@H](Nc3nccc(N(C)C)n3)CC2)c(Br)c1 [compound 2323] | 3 (Class 3 The value of percent of control at 10^−7 M was more than 60% or the value of IC50 was more than 200 nM.)
CN(C)c1nc(N[C@H]2CC[C@@H](CNC(=O)Nc3ccccc3C(C)(C)C)CC2)nc2c1CCCC2 [compound 2476] | 2 (Class 2: The value of percent of control at 10^−7 M was from 40% to 60% or the value of IC′50 was from 50 nM to 200 nM.)

Same assay, conditions: MCH receptor; class by percent of control at 10^-7 M or IC50

Structure (SMILES) | class
CCOc1ccccc1C(=O)N[C@H]1CC[C@@H](Nc2cc(N(C)C)c3ccccc3n2)CC1 [compound 72] | 3 (Class 3 The value of percent of control at 10^−7 M was more than 60% or the value of IC50 was more than 200 nM.)
COc1ccccc1CNC(=S)N[C@H]1CC[C@@H](Nc2nc3c(c(N(C)C)n2)CCCC3)CC1 [compound 2062] | 3 (Class 3 The value of percent of control at 10^−7 M was more than 60% or the value of IC50 was more than 200 nM.)
Cc1noc(C)c1NC(=S)N[C@H]1CC[C@@H](Nc2nc3c(c(N(C)C)n2)CCCC3)CC1 [compound 2085] | 3 (Class 3 The value of percent of control at 10^−7 M was more than 60% or the value of IC50 was more than 200 nM.)

Same assay, conditions: activity class 1-3: percent of control at 10^-7 M or IC50

Structure (SMILES) | class
CC(C)[C@@H]1CC[C@@H](C)CC1OC(=O)N[C@H]1CC[C@@H](Nc2nc3c(c(N(C)C)n2)CCCC3)CC1 (stereo partly drawn) [compound 1593] | 3 (Class 3 The value of percent of control at 10^−7 M was more than 60% or the value of IC50 was more than 200 nM.)
COc1cc2ccccc2cc1CN[C@H]1CC[C@@H](Nc2nccc(N(C)C)n2)CC1 [compound 1522] | 3 (Class 3 The value of percent of control at 10^−7 M was more than 60% or the value of IC50 was more than 200 nM.)
CN(C)c1cc(N[C@H]2CC[C@@H](NC(=O)OCc3ccccc3Cl)CC2)nc2ccccc12 [compound 1556] | 3 (Class 3 The value of percent of control at 10^−7 M was more than 60% or the value of IC50 was more than 200 nM.)
CN(C)c1ccnc(N[C@H]2CC[C@@H](CNCCc3ccc(C(C)(C)C)cc3)CC2)n1 [compound 1529] | 3 (Class 3 The value of percent of control at 10^−7 M was more than 60% or the value of IC50 was more than 200 nM.)

Same assay, conditions: activity class per percent of control at 10^-7 M or IC50

Structure (SMILES) | class
Cc1sc(-c2ccccc2)nc1CC(=O)N[C@H]1CC[C@@H](Nc2nc3c(c(N(C)C)n2)CCCC3)CC1 [compound 987] | 3 (Class 3 The value of percent of control at 10^−7 M was more than 60% or the value of IC50 was more than 200 nM.)
CN(C)c1nc(N[C@H]2CC[C@@H](CNC(=O)C3c4ccccc4Oc4ccccc43)CC2)nc2c1CCCC2 [compound 1083] | 3 (Class 3 The value of percent of control at 10^−7 M was more than 60% or the value of IC50 was more than 200 nM.)
CN(C)c1nc(N[C@H]2CC[C@@H](CNC(=O)c3ccc(Cl)s3)CC2)nc2c1CCCC2 [compound 1065] | 3 (Class 3 The value of percent of control at 10^−7 M was more than 60% or the value of IC50 was more than 200 nM.)

Same assay, conditions: class 1-3 by percent of control at 10^-7 M or IC50

Structure (SMILES) | class
CN(C)c1ccnc(N[C@H]2CC[C@@H](CNC(=O)c3ccc(-c4ccccc4)cc3)CC2)n1 [compound 437] | 3 (Class 3 The value of percent of control at 10^−7 M was more than 60% or the value of IC50 was more than 200 nM.)
CN(C)c1nc(N[C@H]2CC[C@@H](NC(=O)c3ccc(Cl)c(Cl)c3)CC2)nc2c1CCCC2 [compound 467, 3,4-dichloro-N-(cis-4-{[4-(dimethylamino)-5,6,7,8-tetrahydroquinazolin-2-yl]amino}cyclohexyl)benzamide] | 1 (Class 1: The value of percent of control at 10^−7 M was less than 40% or the value of IC50 was less than 50 nM.)
CN(C)c1ccnc(N[C@H]2CC[C@@H](CNC(=O)c3ccccc3I)CC2)n1 [compound 440] | 3 (Class 3 The value of percent of control at 10^−7 M was more than 60% or the value of IC50 was more than 200 nM.)

Same assay, conditions: class by percent of control at 10^-7 M or IC50

Structure (SMILES) | class
CCOc1ccccc1NC(=O)N[C@H]1CC[C@@H](Nc2cc(N(C)C)c3ccccc3n2)CC1 [compound 2142] | 3 (Class 3 The value of percent of control at 10^−7 M was more than 60% or the value of IC50 was more than 200 nM.)
COc1cc(NC(=S)N[C@H]2CC[C@@H](Nc3nc4c(c(N(C)C)n3)CCCC4)CC2)cc(OC)c1OC [compound 1745] | 1 (Class 1: The value of percent of control at 10^−7 M was less than 40% or the value of IC50 was less than 50 nM.)
CC1=C(CC(=O)N[C@H]2CC[C@@H](Nc3nccc(N(C)C)n3)CC2)c2cc(F)ccc2/C1=C/c1ccc([S+](C)[O-])cc1 (relative stereo) [compound 883, N-(cis-4-{[4-(dimethylamino)pyrimidin-2-yl]amino}cyclohexyl)-2-{(1E)-5-fluoro-2-methyl-1-[4-(methylsulfinyl)benzylidene]-1H-inden-3-yl}acetamide] | 2 (Class 2: The value of percent of control at 10^−7 M was from 40% to 60% or the value of IC′50 was from 50 nM to 200 nM.)
CCc1ccccc1NC(=S)N[C@H]1CC[C@@H](Nc2nccc(N(C)C)n2)CC1 [compound 2268] | 3 (Class 3 The value of percent of control at 10^−7 M was more than 60% or the value of IC50 was more than 200 nM.)
CN(C)c1cc(N[C@H]2CC[C@@H](NC(=O)Nc3ccc(C#N)cc3)CC2)nc2ccccc12 [compound 2118] | 3 (Class 3 The value of percent of control at 10^−7 M was more than 60% or the value of IC50 was more than 200 nM.)
CN(C)c1nc(N[C@H]2CC[C@@H](CNCc3csc4ccccc34)CC2)nc2c1CCCC2 [compound 1420] | 3 (Class 3 The value of percent of control at 10^−7 M was more than 60% or the value of IC50 was more than 200 nM.)
CN(C)c1cc(N[C@H]2CC[C@@H](NC(=O)NCc3ccccc3Cl)CC2)nc2ccccc12 [compound 2105] | 2 (Class 2: The value of percent of control at 10^−7 M was from 40% to 60% or the value of IC′50 was from 50 nM to 200 nM.)
CN(C)c1ccnc(N[C@H]2CC[C@@H](NC(=O)c3ccc([N+](=O)[O-])o3)CC2)n1 [compound 329] | 3 (Class 3 The value of percent of control at 10^−7 M was more than 60% or the value of IC50 was more than 200 nM.)
CN(C)c1nc(N[C@H]2CC[C@@H](CNC(=O)c3ccc(F)c(Cl)c3)CC2)nc2c1CCCC2 [compound 635] | 3 (Class 3 The value of percent of control at 10^−7 M was more than 60% or the value of IC50 was more than 200 nM.)
CN(C)c1nc(N[C@H]2CC[C@@H](CNC(=O)Nc3c(Br)cc(F)cc3Br)CC2)nc2c1CCCC2 [compound 2490, N-(2,6-dibromo-4-fluorophenyl)-N′-[(cis-4-{[4-(dimethylamino)-5,6,7,8-tetrahydroquinazolin-2-yl]amino}cyclohexyl)methyl]urea] | 1 (Class 1: The value of percent of control at 10^−7 M was less than 40% or the value of IC50 was less than 50 nM.)
CN(C)c1ccnc(N[C@H]2CC[C@@H](NCc3cccc4ccccc34)CC2)n1 [compound 1240] | 3 (Class 3 The value of percent of control at 10^−7 M was more than 60% or the value of IC50 was more than 200 nM.)
COC(C(=O)N[C@H]1CC[C@@H](Nc2nccc(N(C)C)n2)CC1)c1ccccc1 (relative stereo) [compound 916] | 3 (Class 3 The value of percent of control at 10^−7 M was more than 60% or the value of IC50 was more than 200 nM.)
CN(C)c1ccnc(N[C@H]2CC[C@@H](NC(=O)c3ccc4ccccc4c3)CC2)n1 [compound 328] | 3 (Class 3 The value of percent of control at 10^−7 M was more than 60% or the value of IC50 was more than 200 nM.)
COc1ccc(NC(=S)N[C@H]2CC[C@@H](Nc3cc(N(C)C)c4ccccc4n3)CC2)c(OC)c1 [compound 2170] | 2 (Class 2: The value of percent of control at 10^−7 M was from 40% to 60% or the value of IC′50 was from 50 nM to 200 nM.)
CN(C)c1nc(N[C@H]2CC[C@@H](CNCc3ccc4c(c3)OCCO4)CC2)nc2c1CCCC2 [compound 1384] | 3 (Class 3 The value of percent of control at 10^−7 M was more than 60% or the value of IC50 was more than 200 nM.)

Same assay, conditions: class by percent of control at 10^−7 M or IC50

Structure (SMILES) | class
Cc1cc(N(C)C)nc(N[C@H]2CC[C@@H](NC(=O)c3ccc(Cl)c(Cl)c3)CC2)n1 [compound 2994, 3,4-dichloro-N-(cis-4-{[4-(dimethylamino)-6-methylpyrimidin-2-yl]amino}cyclohexyl)benzamide] | 1 (Class 1: The value of percent of control at 10^−7 M was less than 40% or the value of IC50 was less than 50 nM.)
Cc1cnc(N[C@H]2CC[C@@H](NC(=O)Cc3ccc(Cl)cc3)CC2)nc1N(C)C [compound 2872, 2-(4-chlorophenyl)-N-(cis-4-{[4-(dimethylamino)-5-methylpyrimidin-2-yl]amino}cyclohexyl)acetamide] | 1 (Class 1: The value of percent of control at 10^−7 M was less than 40% or the value of IC50 was less than 50 nM.)
CCOc1ccc(C(=O)N[C@H]2CC[C@@H](Nc3ncc(C)c(N(C)C)n3)CC2)cc1 [compound 2921, N-(cis-4-{[4-(dimethylamino)-5-methylpyrimidin-2-yl]amino}cyclohexyl)-4-ethoxybenzamide] | 2 (Class 2: The value of percent of control at 10^−7 M was from 40% to 60% or the value of IC′50 was from 50 nM to 200 nM.)
Cc1cnc(NC[C@H]2CC[C@@H](NC(=O)c3ccc(Br)cc3)CC2)nc1N(C)C [compound 2724, 4-bromo-N-[cis-4-({[4-(dimethylamino)-5-methylpyrimidin-2-yl]amino}methyl)cyclohexyl]benzamide] | 3 (Class 3 The value of percent of control at 10^−7 M was more than 60% or the value of IC50 was more than 200 nM.)
